Patent publication US10023593B2, “ALK kinase inhibitor, and preparation method and uses thereof” (BEIJING PEARL BIOTECHNOLOGY LIMITED LIABILITY COMPANY, priority 2014, dated 2018)

What was measured:
[1] = biological target: T1, Wild Type ALK kinase (Homo sapiens, UniProt Q9UM73); assay: HTRF KinEASE-TK assay, inhibitory activity on wild type ALK kinase; type: biochemical; conditions: wild type ALK 1 ng/μl, substrate 1 μM, 30° C. 35 minutes, read-out: Inhibition on ALK kinases (wildtype), IC50
T1 construct: purchased Sino-US Crown Bioscience, Inc. batch number ALK 20110607
Summary of the method: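 ALK kinase at 1 ng/μl and substrate at 1 μM were reacted with compound (1% DMSO) in buffer with 5 mM MgCl2 and 1 mM DTT for 35 min at 30 °C. HTRF detection used the 665/615 ratio, normalised to no-compound wells and to 10.4 μM LDK-378 wells. IC50 came from a concentration-response fit.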

[2] = biological target: T2, L1196M mutant ALK kinase (Homo sapiens, UniProt Q9UM73, L1196M); assay: HTRF KinEASE-TK assay, inhibitory activity on L1196M mutant ALK kinase; type: biochemical; conditions: L1196M mutant ALK 1 ng/μl, substrate 1 μM, ATP 5 μM, 30° C. 35 minutes, read-out: Inhibition on ALK kinases (L1196M mutant), IC50
T2 construct: purchased Sino-US Crown Bioscience, Inc. batch number ALKm_20110923
Summary of the method: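 HTRF TK assay: mutant kinase 1 ng/μl, substrate 1 μM, ATP 5 μM, 5 mM MgCl2, 1 mM DTT, 1% DMSO, 35 min at 30 °C. 665/615 ratio read; inhibition normalised to no-compound and 10.4 μM LDK-378 controls; IC50 from curve fit.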

T2 sequence (Q9UM73 19-1620 L1196M): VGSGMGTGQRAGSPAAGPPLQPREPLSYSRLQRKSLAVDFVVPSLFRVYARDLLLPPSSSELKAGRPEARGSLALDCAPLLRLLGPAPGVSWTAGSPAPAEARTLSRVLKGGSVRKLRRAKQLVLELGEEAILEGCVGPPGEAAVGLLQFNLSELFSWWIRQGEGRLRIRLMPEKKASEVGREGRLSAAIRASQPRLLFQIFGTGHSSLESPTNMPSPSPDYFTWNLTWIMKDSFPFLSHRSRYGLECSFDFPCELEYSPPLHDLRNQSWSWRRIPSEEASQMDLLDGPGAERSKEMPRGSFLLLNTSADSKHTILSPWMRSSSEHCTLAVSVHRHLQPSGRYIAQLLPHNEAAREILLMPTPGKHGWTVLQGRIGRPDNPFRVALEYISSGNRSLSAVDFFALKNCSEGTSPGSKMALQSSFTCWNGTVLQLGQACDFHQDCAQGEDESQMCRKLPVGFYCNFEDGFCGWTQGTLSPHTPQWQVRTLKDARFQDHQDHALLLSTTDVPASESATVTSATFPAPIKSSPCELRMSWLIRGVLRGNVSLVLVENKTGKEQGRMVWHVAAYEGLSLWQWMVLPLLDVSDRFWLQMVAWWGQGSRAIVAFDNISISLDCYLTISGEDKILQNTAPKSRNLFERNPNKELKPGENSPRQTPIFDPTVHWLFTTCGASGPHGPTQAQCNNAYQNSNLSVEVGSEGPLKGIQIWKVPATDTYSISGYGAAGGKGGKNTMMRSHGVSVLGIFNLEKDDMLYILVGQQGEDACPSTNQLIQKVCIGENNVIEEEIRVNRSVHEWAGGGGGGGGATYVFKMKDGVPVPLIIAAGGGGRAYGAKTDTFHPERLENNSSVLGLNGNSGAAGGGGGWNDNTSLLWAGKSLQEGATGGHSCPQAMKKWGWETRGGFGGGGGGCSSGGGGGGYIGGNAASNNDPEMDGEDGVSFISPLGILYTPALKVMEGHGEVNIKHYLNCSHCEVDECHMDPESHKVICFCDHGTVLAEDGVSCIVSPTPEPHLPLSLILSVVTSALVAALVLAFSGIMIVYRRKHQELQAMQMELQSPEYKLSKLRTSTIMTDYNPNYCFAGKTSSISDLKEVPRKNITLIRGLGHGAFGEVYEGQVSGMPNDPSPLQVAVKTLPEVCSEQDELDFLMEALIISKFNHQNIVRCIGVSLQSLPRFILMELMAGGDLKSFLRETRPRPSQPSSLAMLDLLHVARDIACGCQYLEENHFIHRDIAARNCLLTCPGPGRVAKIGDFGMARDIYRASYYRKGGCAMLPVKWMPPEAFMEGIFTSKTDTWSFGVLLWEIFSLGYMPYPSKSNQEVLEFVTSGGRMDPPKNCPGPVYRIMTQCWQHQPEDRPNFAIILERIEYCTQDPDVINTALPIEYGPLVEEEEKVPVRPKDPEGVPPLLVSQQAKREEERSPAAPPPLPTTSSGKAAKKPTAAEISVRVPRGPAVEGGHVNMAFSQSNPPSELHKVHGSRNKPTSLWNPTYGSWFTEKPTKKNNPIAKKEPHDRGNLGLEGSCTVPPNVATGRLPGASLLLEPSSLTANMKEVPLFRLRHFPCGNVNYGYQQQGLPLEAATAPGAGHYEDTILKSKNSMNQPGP
T1 sequence (Q9UM73 19-1620): as the sequence (Q9UM73 19-1620 L1196M) above, with M1178L counted along it

Compound	IC50 [1] [nM]	IC50 [2] [nM]
CC(C)Oc1cc(C2CCNCC2)ccc1Nc1ncc(Cl)c(Nc2cn(C)nc2S(=O)(=O)C(C)C)n1 [Final product 1, 5-chloro-N^2-[2-isopropoxy-4-(piperidin-4-yl)phenyl]-N^4-(3-isopropylsulfonyl-1-methyl-1H-pyrazol-4-yl)pyrimidin-2,4-diamine]	4	8
Cc1cc(Nc2ncc(Cl)c(Nc3cn(C)nc3S(=O)(=O)C(C)C)n2)c(OC(C)C)cc1C1CCNCC1 [Final product 2]	6	16
Cc1cc(Nc2ncc(Cl)c(Nc3cn(C)nc3S(=O)(=O)C(C)C)n2)c(OC2CC2)cc1C1CCN(C)C1 (stereo not drawn) [Final product 53]	3	4
Cc1cc(Nc2ncc(Cl)c(Nc3cn(C)nc3S(=O)(=O)C(C)C)n2)c(OC2CC2)cc1C1CN(C)C1 [Final product 54]	3	5
Cc1cc(Nc2ncc(Cl)c(Nc3cn(C)nc3S(=O)(=O)CC(C)C)n2)c(OC2CC2)cc1C1CN(C)C1 [Final product 55]	4	8
Cc1cc(Nc2ncc(Cl)c(Nc3cn(C)nc3S(=O)(=O)CC(C)C)n2)c(OC2CC2)cc1C1CCN(C)CC1 [Final product 57]	7	11
COC1CN(C)CCC1c1cc(OC2CC2)c(Nc2ncc(Cl)c(Nc3cn(C)nc3S(=O)(=O)C(C)C)n2)cc1C (stereo not drawn) [Final product 58]	4	6
COCC1CC(c2cc(OC3CC3)c(Nc3ncc(Cl)c(Nc4cn(C)nc4S(=O)(=O)CC(C)C)n3)cc2C)CCN1C (stereo not drawn) [Final product 79]	3	8
Cc1cc(Nc2ncc(Cl)c(Nc3cn(C4CC4)nc3S(=O)(=O)C(C)C)n2)c(OC(C)C)cc1C1CCN(C)CC1 [Final product 81]	11	25
Cc1cc(Nc2ncc(Cl)c(Nc3cn(C)nc3S(=O)(=O)C(C)C)n2)c(OC2CC2)cc1C1CCN(C)CC1F (stereo not drawn) [Final product 87]	6	10
Cc1cc(Nc2ncc(Cl)c(Nc3cn(C)nc3S(=O)(=O)C(C)C)n2)c(OC2CC2)cc1C1CCN(C)CC1(F)F (stereo not drawn) [Final product 88]	6	15
Cc1cc(Nc2ncc(Cl)c(Nc3cn(C)nc3S(=O)(=O)C(C)C)n2)c(OC2CC2)cc1C1CCN(C)CC1C (stereo not drawn) [Final product 90]	1	4

Other lines, results leading:

IC50 [1] [nM]	IC50 [2] [nM]	Compound
4	5	Cc1cc(Nc2ncc(Cl)c(Nc3cn(C)nc3S(=O)(=O)C(C)C)n2)c(OC(C)C)cc1C1CCNC1 (stereo not drawn) [Final product 3]
5	11	Cc1cc(Nc2ncc(Cl)c(Nc3cn(C4CC4)nc3S(=O)(=O)C(C)C)n2)c(OC2CC2)cc1C1CCN(C)CC1 [Final product 56]
2	4	COCC1CC(c2cc(OC3CC3)c(Nc3ncc(Cl)c(Nc4cn(C)nc4S(=O)(=O)C(C)C)n3)cc2C)CCN1C (stereo not drawn) [Final product 77]
4	7	COCCN1CCC(c2cc(OC3CC3)c(Nc3ncc(Cl)c(Nc4cn(C)nc4S(=O)(=O)C(C)C)n3)cc2C)CC1 [Final product 82]
–	20	Cc1cc(Nc2ncc(Cl)c(Nc3cn(C)nc3S(=O)(=O)C(C)C)n2)c(OC2CC2)cc1C1CCC(NS(C)(=O)=O)CC1 (stereo not drawn) [Final product 205, N-(4-(4-(5-chloro-4-(3-(isopropylsulfonyl)-1-methyl-1H-pyrazol-4-amine)pyrimidin-2-amine)-5-cyclopropoxy-2-methylphenyl)cyclohexyl)methanesulfonamide]
